Laboratory results: patent publication US8927538B2, “Carbazole linked pyrrolo[2,1-c][1,4]benzodiazefine hybrids as potential anticancer agents and process for the preparation thereof” (Council of Scientific & Industrial Research, priority 2010, dated 2015)

What was measured:
[1] = test system: HOP-62; assay: ACTREC in vitro cytotoxicity, HOP-62; format: cell-based
Protocol: (§1) In vitro biological activity studies were carried out at the Advance Center for Treatment Research & Education in Cancer.

[2] = test system: KB; assay: ACTREC in vitro cytotoxicity, KB; format: cell-based
Protocol: as §1

[3] = test system: GURAV; assay: ACTREC in vitro cytotoxicity, GURAV; format: cell-based
Protocol: as §1

[4] = test system: A-2780; assay: ACTREC in vitro cytotoxicity, A-2780; format: cell-based; details: Ovary A-2780 (Table 4)
Protocol: as §1

[5] = test system: Si-Ha; assay: ACTREC in vitro cytotoxicity, Si-Ha; format: cell-based
Protocol: as §1

[6] = test system: Colo-205; assay: ACTREC in vitro cytotoxicity, Colo-205; format: cell-based
Protocol: as §1

[7] = test system: Zr-75-1; assay: ACTREC in vitro cytotoxicity, Zr-75-1; format: cell-based
Protocol: as §1

[8] = test system: MCF7; assay: ACTREC in vitro cytotoxicity, MCF7; format: cell-based
Protocol: as §1

[9] = test system: duplex-form calf thymus DNA (CT-DNA); assay: Thermal denaturation studies (DNA binding); details: [PBD]:[DNA] molar ratio 1:5, CT-DNA 100 μM, ligand 20 μM; for ΔTm after incubation at 37 °C for 0 h: pH 7.00, 0 h; for ΔTm after incubation at 37 °C for 18 h: pH 7.00, 18 h
Protocol: Compounds have been subjected to thermal denaturation studies with duplex-form calf thymus DNA (CT-DNA) using a modification of a reported procedure. Working solutions in aqueous buffer ([…] NaH2PO4/Na2HPO4, 1 mM Na2EDTA, pH 7.00±0.01) containing CT-DNA (100 μM in phosphate) and the PBD (20 μM) have been prepared by addition of concentrated PBD solutions in DMSO to obtain a fixed [PBD]/[DNA] molar ratio of 1:5. The DNA-PBD solutions have been incubated at 37° C. for 0 and 18 hrs prior to analysis. Samples have been monitored at 260 nm using a Beckman DU-800 spectrophotometer fitted with high performance temperature controller, and heated at 1° C. min^−1 in the 40-110° C. range. DNA helix→coil transition temperatures (Tm) have been obtained from the maxima in the d(A260)/dT derivative plots. Drug-induced alterations in DNA melting behavior are given by: […]Tm=Tm(DNA+PBD)-Tm(DNA alone), where the Tm value for the PBD-free CT-DNA is 68.5 […]0.01.
The DNA-binding for these C8-linked carbazole-PBD hybrids has been examined by thermal denaturation studies using calf thymus (CT) DNA. […] Data for 6a, 6b, 6c, 14a, 14b, and 14d and DC-81 are included in Table 5 for comparison.

[10] = test system: A-549; assay: ACTREC in vitro cytotoxicity, A-549; format: cell-based; details: Lung A-549 (Table 4)
Protocol: as §1

[11] = test system: PC-3; assay: ACTREC in vitro cytotoxicity, PC-3; format: cell-based
Protocol: as §1

COc1cc2c(cc1OCCCn1c3ccccc3c3ccccc31)N=C[C@@H]1CCCN1C2=O [Compound 6a, 7-Methoxy-8-[3-(9H-9-carbazoly)propoxy]-(11aS)-1,2,3,11a-tetrahydro-5H-pyrrolo[2,1-c][1,4]-benzodiazepin-5-one]
GI50 ([1]; Lung HOP-62 (Table 4)): 1930 nM
GI50 ([1]; non small cell lung (HOPO62)): 1930 nM
GI50 ([2]; Oral KB (Table 4)): 1870 nM
GI50 ([3]; Oral GURAV (Table 4)): 1600 nM
GI50 [4]: 1510 nM
GI50 ([5]; Cervix Si-Ha (Table 4)): 1700 nM
GI50 ([6]; Colon Colo-205 (Table 4)): 1680 nM
GI50 ([6]; colon (Colo205)): 1680 nM
GI50 ([7]; Breast Zr-75-1 (Table 4)): 1890 nM
GI50 ([8]; Breast MCF7 (Table 4)): 1850 nM
GI50 ([8]; breast (MCF-7)): 1850 nM
ΔTm after incubation at 37 °C for 0 h [9]: 4.2 °C
ΔTm after incubation at 37 °C for 18 h [9]: 5.1 °C

COc1cc2c(cc1OCCCCN1CCN(CCCCn3c4ccccc4c4ccccc43)CC1)N=C[C@@H]1CCCN1C2=O [Compound 14d, 7-Methoxy-8-(4-{-4-[4-(9H-9-carbazoly)butyloxy]piperazino}butyloxy)-(11aS)-1,2,3,11a-tetrahydro-5H-pyrrolo[2,1-c][1,4]benzodiazepin-5-one]
GI50 ([1]; Lung HOP-62 (Table 4)): 1820 nM
GI50 ([2]; Oral KB (Table 4)): 150 nM
GI50 ([2]; oral (KB), text b39): 150 nM
GI50 ([3]; Oral GURAV (Table 4)): 170 nM
GI50 ([3]; oral (GURAV), text b39): 170 nM
GI50 [4]: 160 nM
GI50 ([5]; Cervix Si-Ha (Table 4)): 170 nM
GI50 ([6]; Colon Colo-205 (Table 4)): 160 nM
GI50 ([6]; colon (Colo205)): 160 nM
GI50 ([7]; Breast Zr-75-1 (Table 4)): 150 nM
GI50 ([7]; breast (Zr-75-1)): 170 nM
GI50 ([8]; Breast MCF7 (Table 4)): 170 nM
GI50 ([8]; breast (MCF-7)): 150 nM
ΔTm after incubation at 37 °C for 0 h [9]: 7.9 °C
ΔTm after incubation at 37 °C for 18 h [9]: 8.4 °C

COc1ccc(-c2ccc3c(c2)c2cc(-c4ccc(OC)cc4)ccc2n3CCCOc2cc3c(cc2OC)C(=O)N2CCC[C@H]2C=N3)cc1 [Compound 10d, 7-Methoxy-8-{3-[3,6-di(4-methoxyphenyl)-9H-9-carbazoly]propoxy}-(11aS)-1,2,3,11a-tetrahydro-5H-pyrrolo[2,1-c][1,4]-benzodiazepin-5-one]
GI50 ([1]; Lung HOP-62 (Table 4)): 110 nM
GI50 ([1]; non small cell lung (HOPO62)): 110 nM
GI50 [10]: 2100 nM
GI50 ([2]; Oral KB (Table 4)): 180 nM
GI50 [4]: 150 nM
GI50 ([11]; Prostate PC-3 (Table 4)): 160 nM
GI50 ([5]; Cervix Si-Ha (Table 4)): 170 nM
GI50 ([6]; Colon Colo-205 (Table 4)): 1700 nM
GI50 ([6]; colon (Colo205)): 1700 nM
GI50 ([8]; Breast MCF7 (Table 4)): 130 nM
GI50 ([8]; breast (MCF-7)): 130 nM

COc1ccc(-c2ccc3c(c2)c2cc(-c4ccc(OC)cc4)ccc2n3CCCCOc2cc3c(cc2OC)C(=O)N2CCC[C@H]2C=N3)cc1 [Compound 10e, 7-Methoxy-8-{4-[3,6-di(4-methoxyphenyl)-9H-9-carbazoly]butoxy}-(11aS)-1,2,3,11a-tetrahydro-5H-pyrrolo[2,1-c][1,4]-benzodiazepin-5-one]
GI50 [4]: 2000 nM
GI50 ([11]; Prostate PC-3 (Table 4)): 160 nM
GI50 ([11]; prostate (PC-3)): 160 nM
GI50 ([5]; Cervix (Si-Ha)): 170 nM
GI50 ([5]; Cervix Si-Ha (Table 4)): 170 nM
GI50 ([6]; Colon Colo-205 (Table 4)): 2900 nM
GI50 ([8]; Breast MCF7 (Table 4)): 150 nM
GI50 ([8]; breast (MCF-7)): 150 nM

COc1cc2c(cc1OCCCCn1c3ccccc3c3ccccc31)N=C[C@@H]1CCCN1C2=O [Compound 6b, 7-Methoxy-8-[4-(9H-9-carbazoly)butoxy]-(11aS)-1,2,3,11a-tetrahydro-5H-pyrrolo[2,1-c][1,4]benzodiazepin-5-one]
GI50 ([1]; Lung HOP-62 (Table 4)): 1930 nM
GI50 ([1]; non small cell lung (HOPO62)): 1930 nM
GI50 ([2]; Oral KB (Table 4)): 1870 nM
GI50 ([3]; Oral GURAV (Table 4)): 1600 nM
GI50 [4]: 1570 nM
GI50 ([5]; Cervix Si-Ha (Table 4)): 1700 nM
GI50 ([6]; Colon Colo-205 (Table 4)): 1700 nM
GI50 ([6]; colon (Colo205)): 1700 nM
GI50 ([7]; Breast Zr-75-1 (Table 4)): 1810 nM
GI50 ([7]; breast (Zr-75-1)): 1810 nM
GI50 ([8]; Breast MCF7 (Table 4)): 2210 nM
ΔTm after incubation at 37 °C for 0 h [9]: 4.3 °C
ΔTm after incubation at 37 °C for 18 h [9]: 4.8 °C

COc1cc2c(cc1OCCCCCCn1c3ccccc3c3ccccc31)N=C[C@@H]1CCCN1C2=O [Compound 6d, 7-Methoxy-8-[6-(9H-9-carbazoly)hexyloxy]-(11aS)-1,2,3,11a-tetrahydro-5H-pyrrolo[2,1-c][1,4]-benzodiazepin-5-one]
GI50 ([1]; Lung HOP-62 (Table 4)): 1580 nM
GI50 ([1]; non small cell lung (HOPO62)): 1580 nM
GI50 ([2]; Oral KB (Table 4)): 1950 nM
GI50 ([3]; Oral GURAV (Table 4)): 1710 nM
GI50 [4]: 1700 nM
GI50 ([5]; Cervix Si-Ha (Table 4)): 1580 nM
GI50 ([6]; Colon Colo-205 (Table 4)): 1620 nM
GI50 ([6]; colon (Colo205)): 1620 nM
GI50 ([7]; Breast Zr-75-1 (Table 4)): 2140 nM
GI50 ([8]; Breast MCF7 (Table 4)): 1650 nM
GI50 ([8]; breast (MCF-7)): 1650 nM

COc1cc2c(cc1OCCCN1CCN(CCCCn3c4ccccc4c4ccccc43)CC1)N=C[C@@H]1CCCN1C2=O [Compound 14b, 7-Methoxy-8-(3-{4-[4-(9H-9-carbazoly)butyloxy]piperazino}propyloxy)-(11aS)-1,2,3,11a-tetrahydro-5H-pyrrolo[2,1-c][1,4]benzodiazepin-5-one]
GI50 ([1]; Lung HOP-62 (Table 4)): 140 nM
GI50 ([1]; non small cell lung (HOPO62)): 140 nM
GI50 ([2]; Oral KB (Table 4)): 140 nM
GI50 ([3]; Oral GURAV (Table 4)): 130 nM
GI50 [4]: 110 nM
GI50 ([5]; Cervix Si-Ha (Table 4)): 130 nM
GI50 ([6]; Colon Colo-205 (Table 4)): 140 nM
GI50 ([6]; colon (Colo205)): 140 nM
GI50 ([7]; Breast Zr-75-1 (Table 4)): 150 nM
GI50 ([7]; breast (Zr-75-1)): 150 nM
GI50 ([8]; Breast MCF7 (Table 4)): 150 nM
GI50 ([8]; breast (MCF-7)): 150 nM
ΔTm after incubation at 37 °C for 0 h [9]: 7.8 °C
ΔTm after incubation at 37 °C for 18 h [9]: 8.5 °C
